Six molecules from US20240165243A1, “EGFR DEGRADERS AND METHODS OF USE” (BeiGene Switzerland GmbH, priority 2021, published 2024) can be followed below.

In the experiment the test system is EGFR (Del19/T790M/C797S). Briefly: Cell degradation HTRF assay, H1975-clone #28 cells. Type of experiment: cell-based. Particulars: H1975-clone #28 (Del19/T790M/C797S) cells, 16 h treatment; for DC50: HTRF, read-out: H1975-clone#28 DTC DC50; for H1975-clone#28 DTC Dmax (%): maximum percentage of degradation. As to the method:
Cell Degradation of Example 124-189
H1975-#28 and H1975-#25 cells are treated with compounds diluted in 0.2% DMSO cell culture medium on day 2, incubate for 16 h, 37° C., 5% CO2. the final concentration of compounds in all assay is start with 10 uM, 5-fold dilution, total 8 doses were included.
After 16 h treatment, add HTRF lysis buffer to each well; seal the plate and incubate 1 hour at room temperature on a plate shaker; Once the cells are lysed, 16 μL of cell lysate are transferred to a PE 384-well HTRF detection plate; 4 μL of pre-mixed HTRF antibodies are added to each well; Cover the plate with a plate sealer, spin 1000 rpm for 1 min, Incubate overnight at room temperature; Read on BMG PheraStar with HTRF protocol (337 nm-665 nm-620 nm).
The inhibition (degradation) percentage of the compound was calculated by the following equation:
Inhibition percentage of Compound=100−100×(Signal−low control)/(High control−low control), wherein signal=each test compound group.
High control=Cell group with added DMSO and without compound, indicating microplate readings without EGFR degradation;
Dmax is the maximum percentage of inhibition (degradation).
The IC50 (DC50) value of a compound can be obtained by fitting the following equation
Y=Bottom+(TOP−Bottom)/(1+((IC50/X)^hillslope))
Wherein, X and Y are known values, and IC50, Hillslope, Top and Bottom are the parameters obtained by fitting with software. Y is the inhibition percentage (calculated from the equation), X is the concentration of the compound; IC50 is the concentration of the compound when the 50% inhibition is reached. The smaller the IC50 value is, the stronger the inhibitory ability of the compound is. Vice versa, the higher the IC50 value is, the weaker the ability the inhibitory ability of the compound is; Hillslope represents the slope of the fitted curve, generally around 1*; Bottom represents the minimum value of the curve obtained by data fitting, which is generally 0%±20%; Top represents the maximum value of the curve obtained by data fitting, which is generally 100%±20%. The experimental data were fitted by calculating and analyzing with Dotmatics data analysis software. When Dmax<50%, DC50 will be automatically assigned as larger than […].

For orientation: DC50 means the concentration at which degradation of the target reaches its halfway point.

Regarding `CCc1cc(Nc2ncc(Br)c(Nc3cnc4cc(F)ccc4c3P(C)(C)=O)n2)c(OC)cc1N1CCC(N2CCN(CCc3cc(F)c(C4CCC(=O)NC4=O)c(F)c3)CC2)CC1` (stereo not drawn) [Example 172, 3-(4-(2-(4-(1-(4-((5-bromo-4-((4-(dimethylphosphoryl)-7-fluoroquinolin-3-yl)amino)pyrimidin-2-yl)amino)-2-ethyl-5-methoxyphenyl)piperidin-4-yl)piperazin-1-yl)ethyl)-2,6-difluorophenyl)piperidine-2,6-dione], the half-maximal degradation concentration (DC50) came to 1.4 nM and the “H1975-clone#28 DTC Dmax (%)” value was 81%.
Regarding `CCc1cc(Nc2ncc(Br)c(Nc3cnc4c(F)c(F)ccc4c3P(C)(C)=O)n2)c(OC)cc1N1CCC(N2CCN(CCc3cc(F)c(C4CCC(=O)NC4=O)c(F)c3)CC2)CC1` (stereo not drawn) [Example 173, 3-(4-(2-(4-(1-(4-((5-bromo-4-((4-(dimethylphosphoryl)-7,8-difluoroquinolin-3-yl)amino)pyrimidin-2-yl)amino)-2-ethyl-5-methoxyphenyl)piperidin-4-yl)piperazin-1-yl)ethyl)-2,6-difluorophenyl)piperidine-2,6-dione], the 50% degradation concentration (DC50) was 2.7 nM and the “H1975-clone#28 DTC Dmax (%)” value was found to be 82%.
Taken in the same sequence, the figures for `CCc1cc(Nc2ncc(Br)c(Nc3cnc4ccc(F)cc4c3P(C)(C)=O)n2)c(OC)cc1N1CCC(N2CCN(CCc3cc(F)c(C4CCC(=O)NC4=O)c(F)c3)CC2)CC1` (stereo not drawn) [Example 174, 3-(4-(2-(4-(1-(4-((5-bromo-4-((4-(dimethylphosphoryl)-6-fluoroquinolin-3-yl)amino)pyrimidin-2-yl)amino)-2-ethyl-5-methoxyphenyl)piperidin-4-yl)piperazin-1-yl)ethyl)-2,6-difluorophenyl)piperidine-2,6-dione] were 1.8 nM and 80%.
For the molecule `CCc1cc(Nc2ncc(Br)c(Nc3cnc4ccccc4c3P(C)(C)=O)n2)c(OC)cc1N1CCC(N2CCN(CCc3ccc4c(c3)C(C)(C)C(=O)N4C3CCC(=O)NC3=O)CC2)CC1` (stereo not drawn) [Example 175, 3-(5-(2-(4-(1-(4-((5-bromo-4-((4-(dimethylphosphoryl)quinolin-3-yl)amino)pyrimidin-2-yl)amino)-2-ethyl-5-methoxyphenyl)piperidin-4-yl)piperazin-1-yl)ethyl)-3,3-dimethyl-2-oxoindolin-1-yl)piperidine-2,6-dione], the DC50 turned out to be 5.5 nM and the “H1975-clone#28 DTC Dmax (%)” value came to 47%.
In the case of `CCc1cc(Nc2ncc(Br)c(Nc3cnc4ccccc4c3P(C)(C)=O)n2)c(OC)cc1N1CCC(N2CCN(CCc3ccc4c(c3)oc(=O)n4C3CCC(=O)NC3=O)CC2)CC1` (stereo not drawn) [Example 176, 3-(6-(2-(4-(1-(4-((5-bromo-4-((4-(dimethylphosphoryl)quinolin-3-yl)amino)pyrimidin-2-yl)amino)-2-ethyl-5-methoxyphenyl)piperidin-4-yl)piperazin-1-yl)ethyl)-2-oxobenzo[d]oxazol-3(2H)-yl)piperidine-2,6-dione], the DC50 was found to be 1.6 nM and the “H1975-clone#28 DTC Dmax (%)” value turned out to be 73%.
Regarding `CCc1cc(Nc2ncc(Br)c(Nc3cnc4ccccc4c3P(C)(C)=O)n2)c(OC)cc1N1CCC(N2CCN(C(=O)C3CC4(C3)CN(c3cc(F)c(C5CCC(=O)NC5=O)c(F)c3)C4)CC2)CC1` (stereo not drawn) [Example 178, 3-(4-(6-(4-(1-(4-((5-bromo-4-((4-(dimethylphosphoryl)quinolin-3-yl)amino)pyrimidin-2-yl)amino)-2-ethyl-5-methoxyphenyl)piperidin-4-yl)piperazine-1-carbonyl)-2-azaspiro[3.3]heptan-2-yl)-2,6-difluorophenyl)piperidine-2,6-dione], the DC50 came out at 2.6 nM and the “H1975-clone#28 DTC Dmax (%)” value is 67%.
